The values that follow come from the supplement of paper PMC10307832.

Holding throughout (test): relative viability (nuclei count vs DMSO), 5 days (fraction); higher = more cells survive
Compound in the assay “RU-SKI 43 + Tozasertib”: CC[C@@H](C)CNCC(=O)N1CCC2=C([C@@H]1COC3=CC=CC(=C3)C)C=CS2 [RU-SKI 43] + Cc1cc(Nc2cc(N3CCN(C)CC3)nc(Sc3ccc(NC(=O)C4CC4)cc3)n2)n[nH]1 [Tozasertib] (partner 0.1 µM)
A digest of the protocol:
(§1)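 For relative viability, nuclei counts in treated wells were divided by those in vehicle wells. Lung cancer cell lines had been pin-tool dosed in 1536-well plates the day after seeding and cultured for 5 days, then fixed and stained in one step (final 0.05% Triton X-100, 1% formaldehyde, 1 ug/ml Hoechst) and imaged at 4×. Doses were one drug alone or a fixed anchor-drug dose plus five library-drug doses (not always all listed) in √10 steps, and values are duplicate-plate medians.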

Compound in the assay “RU-SKI 43 + Vorinostat”: CC[C@@H](C)CNCC(=O)N1CCC2=C([C@@H]1COC3=CC=CC(=C3)C)C=CS2 [RU-SKI 43] + O=C(CCCCCCC(=O)Nc1ccccc1)NO [Vorinostat] (partner 1 µM)
Put shortly:
as §1

Compound in the assay “Irinotecan + Linsitinib”: CCc1c2c(nc3ccc(OC(=O)N4CCC(N5CCCCC5)CC4)cc13)-c1cc3c(c(=O)n1C2)COC(=O)[C@]3(O)CC [Irinotecan] + C[C@]1(O)C[C@@H](c2nc(-c3ccc4ccc(-c5ccccc5)nc4c3)c3c(N)nccn32)C1 [Linsitinib] (partner 1 µM)
Put shortly:
as §1

Compound in the assay “MK-8033 + Phenformin”: Cn1cc(-c2cnc3ccc4ccc(CS(=O)(=O)NCc5ccccn5)cc4c(=O)c3c2)cn1 [MK-8033] + N=C(N)NC(=N)NCCc1ccccc1 [Phenformin] (partner 250 µM)
A digest of the protocol:
as §1

With PC-3 [JPC-3], the relative viability with RU-SKI 43 + Tozasertib (first compound 0.1 µM) is 0.815; with RU-SKI 43 + Tozasertib (first compound 0.3162 µM), 0.953; in the assay with RU-SKI 43 + Tozasertib (first compound 1 µM), 1.02; with RU-SKI 43 + Tozasertib (first compound 3.162 µM), 0.959; in the assay with RU-SKI 43 + Tozasertib (first compound 10 µM), 0.773; with RU-SKI 43 + Vorinostat (first compound 0.1 µM) it was 0.947. Further, the relative viability was 0.727 with RU-SKI 43 + Vorinostat (first compound 0.3162 µM); 0.982 with RU-SKI 43 + Vorinostat (first compound 1 µM); 0.651 with RU-SKI 43 + Vorinostat (first compound 3.162 µM); 0.876 with RU-SKI 43 + Vorinostat (first compound 10 µM); 0.842 with Irinotecan + Linsitinib (first compound 0.6325 µM); 0.413 with Irinotecan + Linsitinib (first compound 2 µM). In addition, the relative viability with Irinotecan + Linsitinib (first compound 6.325 µM) came to 0.377; with Irinotecan + Linsitinib (first compound 20 µM), 0.412; in the assay with MK-8033 + Phenformin (first compound 0.02 µM), 0.482; in the assay with MK-8033 + Phenformin (first compound 0.06325 µM), 0.426; with MK-8033 + Phenformin (first compound 0.2 µM), 0.469; with MK-8033 + Phenformin (first compound 0.6325 µM), 0.475. In addition, the relative viability with MK-8033 + Phenformin (first compound 2 µM) is 0.503.
Consider PC-14, for which the relative viability with RU-SKI 43 + Tozasertib (first compound 0.1 µM) worked out at 0.635; with RU-SKI 43 + Tozasertib (first compound 0.3162 µM) it was 0.522; in the assay with RU-SKI 43 + Tozasertib (first compound 1 µM), 0.7; with RU-SKI 43 + Tozasertib (first compound 3.162 µM), 0.554; with RU-SKI 43 + Tozasertib (first compound 10 µM), 0.471; with RU-SKI 43 + Vorinostat (first compound 0.1 µM), 0.661. For the same cell line, the relative viability came to 0.69 in the assay with RU-SKI 43 + Vorinostat (first compound 0.3162 µM); 0.739 with RU-SKI 43 + Vorinostat (first compound 1 µM); 0.86 with RU-SKI 43 + Vorinostat (first compound 3.162 µM); 0.585 in the assay with RU-SKI 43 + Vorinostat (first compound 10 µM); 0.902 with Irinotecan + Linsitinib (first compound 0.6325 µM); 0.609 in the assay with Irinotecan + Linsitinib (first compound 2 µM). The relative viability with Irinotecan + Linsitinib (first compound 6.325 µM) worked out at 0.188; with Irinotecan + Linsitinib (first compound 20 µM), 0.204; with MK-8033 + Phenformin (first compound 0.02 µM), 0.605; with MK-8033 + Phenformin (first compound 0.06325 µM), 0.472; with MK-8033 + Phenformin (first compound 0.2 µM) it was 0.508; with MK-8033 + Phenformin (first compound 0.6325 µM), 0.524. The relative viability in the assay with MK-8033 + Phenformin (first compound 2 µM) is 0.564.
RERF-LC-KJ: the relative viability in the assay with RU-SKI 43 + Tozasertib (first compound 0.1 µM) worked out at 0.458; with RU-SKI 43 + Tozasertib (first compound 0.3162 µM) it was 0.583; with RU-SKI 43 + Tozasertib (first compound 1 µM), 0.476; in the assay with RU-SKI 43 + Tozasertib (first compound 3.162 µM) it was 0.505; with RU-SKI 43 + Tozasertib (first compound 10 µM), 0.352; in the assay with RU-SKI 43 + Vorinostat (first compound 0.1 µM), 0.695. The relative viability came to 0.699 in the assay with RU-SKI 43 + Vorinostat (first compound 0.3162 µM); 0.654 with RU-SKI 43 + Vorinostat (first compound 1 µM); 0.702 in the assay with RU-SKI 43 + Vorinostat (first compound 3.162 µM); 0.546 in the assay with RU-SKI 43 + Vorinostat (first compound 10 µM); 0.807 with Irinotecan + Linsitinib (first compound 0.6325 µM); 0.647 with Irinotecan + Linsitinib (first compound 2 µM). In addition, the relative viability was determined as 0.379 with Irinotecan + Linsitinib (first compound 6.325 µM); 0.34 with Irinotecan + Linsitinib (first compound 20 µM); 0.406 with MK-8033 + Phenformin (first compound 0.02 µM); 0.368 with MK-8033 + Phenformin (first compound 0.06325 µM); 0.431 in the assay with MK-8033 + Phenformin (first compound 0.2 µM); 0.434 with MK-8033 + Phenformin (first compound 0.6325 µM). Further, the relative viability with MK-8033 + Phenformin (first compound 2 µM) stood at 0.364.
For SK-LU-1, the relative viability with RU-SKI 43 + Tozasertib (first compound 0.1 µM) amounted to 0.331; in the assay with RU-SKI 43 + Tozasertib (first compound 0.3162 µM), 0.365; with RU-SKI 43 + Tozasertib (first compound 1 µM) it was 0.322; in the assay with RU-SKI 43 + Tozasertib (first compound 3.162 µM) it was 0.305; with RU-SKI 43 + Tozasertib (first compound 10 µM), 0.287; in the assay with RU-SKI 43 + Vorinostat (first compound 0.1 µM) it was 0.738. The relative viability with RU-SKI 43 + Vorinostat (first compound 0.3162 µM) came to 0.893; with RU-SKI 43 + Vorinostat (first compound 1 µM), 0.882; with RU-SKI 43 + Vorinostat (first compound 3.162 µM) it was 0.795; with RU-SKI 43 + Vorinostat (first compound 10 µM) it was 0.775; with Irinotecan + Linsitinib (first compound 0.6325 µM) it was 0.491; in the assay with Irinotecan + Linsitinib (first compound 2 µM), 0.495. Besides, the relative viability is 0.379 in the assay with Irinotecan + Linsitinib (first compound 6.325 µM); 0.329 in the assay with Irinotecan + Linsitinib (first compound 20 µM); 0.519 with MK-8033 + Phenformin (first compound 0.02 µM); 0.505 with MK-8033 + Phenformin (first compound 0.06325 µM); 0.518 with MK-8033 + Phenformin (first compound 0.2 µM); 0.497 with MK-8033 + Phenformin (first compound 0.6325 µM). Besides, in the assay with MK-8033 + Phenformin (first compound 2 µM), the relative viability was 0.53.
Consider SK-MES-1, for which the relative viability with RU-SKI 43 + Tozasertib (first compound 0.1 µM) is 0.9; with RU-SKI 43 + Tozasertib (first compound 0.3162 µM) it was 1.14; in the assay with RU-SKI 43 + Tozasertib (first compound 1 µM) it was 1.04; with RU-SKI 43 + Tozasertib (first compound 3.162 µM), 0.924; with RU-SKI 43 + Tozasertib (first compound 10 µM), 0.754; in the assay with RU-SKI 43 + Vorinostat (first compound 0.1 µM), 1.15. Besides, the relative viability in the assay with RU-SKI 43 + Vorinostat (first compound 0.3162 µM) is 1.45; with RU-SKI 43 + Vorinostat (first compound 1 µM) it was 1.28; with RU-SKI 43 + Vorinostat (first compound 3.162 µM), 1.21; with RU-SKI 43 + Vorinostat (first compound 10 µM), 1.1; with Irinotecan + Linsitinib (first compound 0.6325 µM), 0.997; with Irinotecan + Linsitinib (first compound 2 µM), 0.646. Further, the relative viability is 0.315 with Irinotecan + Linsitinib (first compound 6.325 µM); 0.281 with Irinotecan + Linsitinib (first compound 20 µM); 0.67 in the assay with MK-8033 + Phenformin (first compound 0.02 µM); 0.622 with MK-8033 + Phenformin (first compound 0.06325 µM); 0.634 with MK-8033 + Phenformin (first compound 0.2 µM); 0.719 in the assay with MK-8033 + Phenformin (first compound 0.6325 µM). Also, the relative viability in the assay with MK-8033 + Phenformin (first compound 2 µM) amounted to 0.671.
SW 1573: the relative viability is 0.209 with RU-SKI 43 + Tozasertib (first compound 0.1 µM); 0.22 in the assay with RU-SKI 43 + Tozasertib (first compound 0.3162 µM); 0.204 with RU-SKI 43 + Tozasertib (first compound 1 µM); 0.123 in the assay with RU-SKI 43 + Tozasertib (first compound 3.162 µM); 0.196 with RU-SKI 43 + Tozasertib (first compound 10 µM); 0.746 with RU-SKI 43 + Vorinostat (first compound 0.1 µM). Besides, the relative viability in the assay with RU-SKI 43 + Vorinostat (first compound 0.3162 µM) stood at 0.997; in the assay with RU-SKI 43 + Vorinostat (first compound 1 µM), 0.963; with RU-SKI 43 + Vorinostat (first compound 3.162 µM), 0.934; with RU-SKI 43 + Vorinostat (first compound 10 µM), 0.767; in the assay with Irinotecan + Linsitinib (first compound 0.6325 µM) it was 0.627; with Irinotecan + Linsitinib (first compound 2 µM), 0.534. In addition, the relative viability with Irinotecan + Linsitinib (first compound 6.325 µM) came to 0.2; with Irinotecan + Linsitinib (first compound 20 µM) it was 0.178; in the assay with MK-8033 + Phenformin (first compound 0.02 µM) it was 0.374; with MK-8033 + Phenformin (first compound 0.06325 µM), 0.311; in the assay with MK-8033 + Phenformin (first compound 0.2 µM), 0.367; with MK-8033 + Phenformin (first compound 0.6325 µM), 0.326. In addition, the relative viability with MK-8033 + Phenformin (first compound 2 µM) was found to be 0.249.
